Test results from ChEMBL document CHEMBL1140446, “Designed multiple ligands. An emerging drug discovery paradigm” (J Med Chem, 2005).

Legend:
[1] = molecular target: T1, D(2) dopamine receptor (Homo sapiens, UniProt P14416)
Description: Inhibitory concentration against dopamine receptor D2

[2] = molecular target: 5-hydroxytryptamine receptor 2A (Homo sapiens, UniProt P28223)
Description: Inhibitory concentration against 5-hydroxytryptamine 2 receptor

[3] = molecular target: Acetylcholinesterase (Homo sapiens, UniProt P22303)
Description: Inhibitory concentration against acetylcholinesterase

[4] = molecular target: T2, Sodium-dependent serotonin transporter (Homo sapiens, UniProt P31645)
Description: Inhibitory concentration against serotonin transporter

[5] = molecular target: T3, Adrenergic receptor alpha-1 (Homo sapiens, UniProt P35348+P25100+P35368); assay: Inhibition constant against alpha adrenergic receptor; assay type: protein assay
T3 sequence (P35348 whole entry): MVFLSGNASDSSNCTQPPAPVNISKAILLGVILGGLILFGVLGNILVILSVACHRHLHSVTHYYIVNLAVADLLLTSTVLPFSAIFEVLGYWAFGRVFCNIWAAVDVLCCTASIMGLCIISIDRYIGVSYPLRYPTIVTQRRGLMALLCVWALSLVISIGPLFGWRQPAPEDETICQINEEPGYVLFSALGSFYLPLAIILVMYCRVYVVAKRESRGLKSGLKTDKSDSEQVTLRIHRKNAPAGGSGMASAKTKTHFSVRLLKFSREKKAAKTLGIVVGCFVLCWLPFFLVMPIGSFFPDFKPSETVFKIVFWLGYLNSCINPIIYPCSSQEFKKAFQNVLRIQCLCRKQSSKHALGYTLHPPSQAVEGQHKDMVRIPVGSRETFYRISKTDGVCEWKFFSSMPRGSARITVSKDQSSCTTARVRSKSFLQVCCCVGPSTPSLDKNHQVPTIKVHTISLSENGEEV
T3 sequence (P25100 whole entry): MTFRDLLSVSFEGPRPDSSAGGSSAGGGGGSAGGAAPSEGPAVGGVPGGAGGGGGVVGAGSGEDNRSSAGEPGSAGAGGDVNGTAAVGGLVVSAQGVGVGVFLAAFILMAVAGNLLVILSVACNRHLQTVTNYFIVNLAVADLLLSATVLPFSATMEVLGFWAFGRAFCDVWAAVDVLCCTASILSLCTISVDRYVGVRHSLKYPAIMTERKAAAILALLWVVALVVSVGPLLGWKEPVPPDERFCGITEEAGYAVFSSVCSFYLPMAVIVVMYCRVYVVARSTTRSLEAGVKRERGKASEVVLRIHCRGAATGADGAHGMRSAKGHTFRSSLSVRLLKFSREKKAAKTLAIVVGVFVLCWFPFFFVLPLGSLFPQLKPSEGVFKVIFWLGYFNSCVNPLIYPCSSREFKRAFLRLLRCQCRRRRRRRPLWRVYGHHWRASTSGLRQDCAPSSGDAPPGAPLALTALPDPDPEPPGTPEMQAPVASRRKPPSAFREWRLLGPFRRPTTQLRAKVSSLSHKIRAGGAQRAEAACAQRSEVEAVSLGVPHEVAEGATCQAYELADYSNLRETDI
T3 sequence (P35368 whole entry): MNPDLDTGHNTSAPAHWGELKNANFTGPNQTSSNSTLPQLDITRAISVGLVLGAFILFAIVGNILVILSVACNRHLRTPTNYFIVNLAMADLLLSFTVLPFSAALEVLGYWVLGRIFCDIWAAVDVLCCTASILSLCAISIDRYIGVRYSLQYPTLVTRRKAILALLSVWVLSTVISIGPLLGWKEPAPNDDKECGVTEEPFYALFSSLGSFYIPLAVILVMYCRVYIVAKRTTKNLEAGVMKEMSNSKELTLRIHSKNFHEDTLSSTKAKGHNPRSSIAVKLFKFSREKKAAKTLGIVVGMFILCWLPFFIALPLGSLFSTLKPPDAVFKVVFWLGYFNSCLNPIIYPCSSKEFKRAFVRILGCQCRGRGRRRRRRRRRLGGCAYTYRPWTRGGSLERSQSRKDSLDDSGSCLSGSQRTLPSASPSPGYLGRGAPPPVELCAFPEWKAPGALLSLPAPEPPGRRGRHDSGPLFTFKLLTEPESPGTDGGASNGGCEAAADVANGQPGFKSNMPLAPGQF

[6] = molecular target: 5-hydroxytryptamine receptor 1B (Homo sapiens, UniProt P28222)
Description: Inhibition constant against 5-HT 1B receptor

[7] = molecular target: 5-hydroxytryptamine receptor 1D (Homo sapiens, UniProt P28221); assay: Inhibition constant against 5-hydroxytryptamine 1D receptor
[8] = molecular target: T1, D(2) dopamine receptor; remark: listed apart in the source
Description: Inhibition constant against dopamine receptor D2

[9] = molecular target: Procathepsin L (Homo sapiens, UniProt P07711); assay: Inhibitory concentration against cathepsin L
[10] = molecular target: T4, Histamine H1 receptor (Homo sapiens, UniProt P35367)
Description: Inhibitory concentration against histamine H1 receptor

[11] = molecular target: T5, Substance-P receptor (Homo sapiens, UniProt P25103)
Description: Inhibitory concentration against neurokinin NK1 receptor

[12] = molecular target: T6, 5-hydroxytryptamine receptor 1A (Homo sapiens, UniProt P08908)
T6 sequence (P08908 whole entry): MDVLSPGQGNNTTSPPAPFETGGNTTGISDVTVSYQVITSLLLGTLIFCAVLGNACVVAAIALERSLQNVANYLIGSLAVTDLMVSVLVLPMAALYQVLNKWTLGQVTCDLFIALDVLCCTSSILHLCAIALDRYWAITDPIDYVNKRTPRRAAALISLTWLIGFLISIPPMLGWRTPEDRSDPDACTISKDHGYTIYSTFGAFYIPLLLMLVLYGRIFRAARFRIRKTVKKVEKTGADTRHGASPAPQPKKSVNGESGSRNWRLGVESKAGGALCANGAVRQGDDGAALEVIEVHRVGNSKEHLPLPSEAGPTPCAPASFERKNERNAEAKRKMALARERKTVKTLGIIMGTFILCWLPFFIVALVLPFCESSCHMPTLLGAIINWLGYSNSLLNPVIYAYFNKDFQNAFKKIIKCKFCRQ
Description: Inhibition constant against 5-hydroxytryptamine 1A receptor

[13] = molecular target: 5-hydroxytryptamine receptor 2A (Rattus norvegicus, UniProt P14842); assay: Inhibition constant against 5-Hydroxytryptamine 2 receptor in olfactory bulbectomized rat
[14] = molecular target: Beta-2 adrenergic receptor (Homo sapiens, UniProt P07550); assay: Negative logarithm causing 50% receptor occupancy against beta-2 adrenergic receptor
[15] = molecular target: T2, Sodium-dependent serotonin transporter; assay: Negative logarithm causing 50% receptor occupancy against serotonin transporter
[16] = molecular target: T5, Substance-P receptor; assay: Negative logarithm causing 50% receptor occupancy against tachykinin receptor 1
[17] = Oral bioavailability; assay type: ADME, organism-based; settings: eutheria, in vivo
[18] = molecular target: T2, Sodium-dependent serotonin transporter; remark: listed apart in the source
Description: Inhibition constant against serotonin transporter

[19] = molecular target: Platelet-activating factor receptor (Homo sapiens, UniProt P25105)
Description: Inhibitory concentration against platelet activating factor receptor

[20] = molecular target: T6, 5-hydroxytryptamine receptor 1A; assay: Inhibitory concentration against 5-hydroxytryptamine 1A receptor
[21] = molecular target: T3, Adrenergic receptor alpha-1
Description: Inhibitory concentration against alpha adrenergic receptor

[22] = molecular target: Cysteinyl leukotriene receptor 1 (Cavia porcellus, UniProt Q2NNR5); assay: Inhibitory concentration against LTD4-induced contraction of guinea pig ileum at 10 uM concentration; assay type: tissue-based
[23] = molecular target: T4, Histamine H1 receptor; remark: listed apart in the source
Description: Dissociation constant against histamine H1 receptor

[24] = molecular target: T7, Angiotensin-converting enzyme (Homo sapiens, UniProt P12821); assay: Inhibition constant against angiotensin I converting enzyme
[25] = molecular target: T8, Neprilysin (Homo sapiens, UniProt P08473); assay: Inhibition constant against neutral endopeptidase
[26] = molecular target: Endothelin-converting enzyme 1 (Homo sapiens, UniProt P42892); assay: Inhibition constant against endothelin converting enzyme 1
[27] = molecular target: Sodium-dependent dopamine transporter (Homo sapiens, UniProt Q01959)
Description: Inhibitory concentration against dopamine transporter

[28] = molecular target: Tyrosine-protein kinase ABL1 (Homo sapiens, UniProt P00519); assay: Inhibitory concentration against v-Abl tyrosine kinase
[29] = molecular target: Adrenergic receptor alpha-1 (Homo sapiens) (UniProt P35348+P25100+P35368); assay: Inhibition constant against alpha adrenergic receptor at 0.1 uM concentration; assay type: protein assay
[30] = molecular target: T4, Histamine H1 receptor; remark: listed apart in the source
Description: Inhibition constant against histamine H1 receptor

[31] = molecular target: Histamine H3 receptor (Homo sapiens, UniProt Q9Y5N1); assay: Inhibition constant against histamine H3 receptor
[32] = molecular target: Histamine H2 receptor (Homo sapiens, UniProt P25021); assay: Negative logarithm of the drug concentration against H2 histamine receptor; settings: read-out: pA2 (converted)
[33] = molecular target: T9, Gastrin/cholecystokinin type B receptor (Homo sapiens, UniProt P32239); assay: Inhibitory concentration against gastrin receptor
[34] = molecular target: T9, Gastrin/cholecystokinin type B receptor; assay: Inhibitory concentration against Cholecystokinin B receptor
[35] = molecular target: T10, Substance-K receptor (Homo sapiens, UniProt P21452); assay: Binding affinity towards tachykinin receptor 2
T10 sequence (P21452 whole entry): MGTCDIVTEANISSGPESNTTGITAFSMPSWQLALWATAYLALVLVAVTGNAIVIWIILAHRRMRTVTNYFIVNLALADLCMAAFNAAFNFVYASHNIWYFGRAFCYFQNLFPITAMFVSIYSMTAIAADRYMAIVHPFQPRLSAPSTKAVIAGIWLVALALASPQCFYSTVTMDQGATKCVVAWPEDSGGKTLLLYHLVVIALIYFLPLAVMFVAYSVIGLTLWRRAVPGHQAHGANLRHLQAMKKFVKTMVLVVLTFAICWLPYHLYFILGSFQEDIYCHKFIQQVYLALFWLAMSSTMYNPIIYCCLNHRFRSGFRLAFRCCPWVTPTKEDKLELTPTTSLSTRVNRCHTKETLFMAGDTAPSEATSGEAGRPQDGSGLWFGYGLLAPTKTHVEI

[36] = molecular target: T5, Substance-P receptor; remark: listed apart in the source
Description: Binding affinity towards tachykinin receptor 1

[37] = molecular target: T8, Neprilysin
Description: Inhibitory concentration against neutral endopeptidase

[38] = molecular target: T7, Angiotensin-converting enzyme; assay: Inhibitory concentration against angiotensin I converting enzyme

T1 sequence (P14416 whole entry): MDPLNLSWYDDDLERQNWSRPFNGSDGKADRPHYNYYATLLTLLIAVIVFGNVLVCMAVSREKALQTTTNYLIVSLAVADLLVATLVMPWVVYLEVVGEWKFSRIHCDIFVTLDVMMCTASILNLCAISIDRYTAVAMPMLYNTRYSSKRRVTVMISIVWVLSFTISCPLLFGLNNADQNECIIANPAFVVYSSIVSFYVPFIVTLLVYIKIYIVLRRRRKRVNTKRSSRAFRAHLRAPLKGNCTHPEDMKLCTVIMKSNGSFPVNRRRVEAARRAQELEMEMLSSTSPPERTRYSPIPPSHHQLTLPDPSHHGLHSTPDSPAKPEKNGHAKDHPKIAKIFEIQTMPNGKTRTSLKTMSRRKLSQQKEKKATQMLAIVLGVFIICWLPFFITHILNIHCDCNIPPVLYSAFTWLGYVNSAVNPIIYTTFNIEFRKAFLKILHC
T5 sequence (P25103 whole entry): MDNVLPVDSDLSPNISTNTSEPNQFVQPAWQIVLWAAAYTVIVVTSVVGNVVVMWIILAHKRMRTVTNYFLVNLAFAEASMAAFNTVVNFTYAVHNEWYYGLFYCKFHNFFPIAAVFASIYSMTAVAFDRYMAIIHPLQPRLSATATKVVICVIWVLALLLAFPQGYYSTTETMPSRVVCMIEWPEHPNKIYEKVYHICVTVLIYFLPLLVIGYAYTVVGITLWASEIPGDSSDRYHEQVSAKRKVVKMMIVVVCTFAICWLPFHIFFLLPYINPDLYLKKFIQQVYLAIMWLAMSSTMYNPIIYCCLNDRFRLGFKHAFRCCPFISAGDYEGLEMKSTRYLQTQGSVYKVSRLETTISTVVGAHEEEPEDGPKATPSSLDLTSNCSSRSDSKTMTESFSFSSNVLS
T4 sequence (P35367 whole entry): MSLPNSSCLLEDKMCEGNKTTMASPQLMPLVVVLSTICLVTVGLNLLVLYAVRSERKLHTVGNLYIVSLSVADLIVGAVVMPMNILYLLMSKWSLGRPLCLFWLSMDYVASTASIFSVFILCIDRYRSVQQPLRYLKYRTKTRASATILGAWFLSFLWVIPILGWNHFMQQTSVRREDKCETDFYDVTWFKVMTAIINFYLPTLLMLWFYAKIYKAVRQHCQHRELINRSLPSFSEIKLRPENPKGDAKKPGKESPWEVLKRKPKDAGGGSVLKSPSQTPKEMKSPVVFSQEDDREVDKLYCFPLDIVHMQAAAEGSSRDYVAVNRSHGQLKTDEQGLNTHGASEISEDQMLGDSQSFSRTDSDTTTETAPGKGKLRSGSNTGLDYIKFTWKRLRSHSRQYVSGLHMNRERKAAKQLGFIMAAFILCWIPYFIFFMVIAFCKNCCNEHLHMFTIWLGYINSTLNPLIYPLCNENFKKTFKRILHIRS
T7 sequence (P12821 whole entry): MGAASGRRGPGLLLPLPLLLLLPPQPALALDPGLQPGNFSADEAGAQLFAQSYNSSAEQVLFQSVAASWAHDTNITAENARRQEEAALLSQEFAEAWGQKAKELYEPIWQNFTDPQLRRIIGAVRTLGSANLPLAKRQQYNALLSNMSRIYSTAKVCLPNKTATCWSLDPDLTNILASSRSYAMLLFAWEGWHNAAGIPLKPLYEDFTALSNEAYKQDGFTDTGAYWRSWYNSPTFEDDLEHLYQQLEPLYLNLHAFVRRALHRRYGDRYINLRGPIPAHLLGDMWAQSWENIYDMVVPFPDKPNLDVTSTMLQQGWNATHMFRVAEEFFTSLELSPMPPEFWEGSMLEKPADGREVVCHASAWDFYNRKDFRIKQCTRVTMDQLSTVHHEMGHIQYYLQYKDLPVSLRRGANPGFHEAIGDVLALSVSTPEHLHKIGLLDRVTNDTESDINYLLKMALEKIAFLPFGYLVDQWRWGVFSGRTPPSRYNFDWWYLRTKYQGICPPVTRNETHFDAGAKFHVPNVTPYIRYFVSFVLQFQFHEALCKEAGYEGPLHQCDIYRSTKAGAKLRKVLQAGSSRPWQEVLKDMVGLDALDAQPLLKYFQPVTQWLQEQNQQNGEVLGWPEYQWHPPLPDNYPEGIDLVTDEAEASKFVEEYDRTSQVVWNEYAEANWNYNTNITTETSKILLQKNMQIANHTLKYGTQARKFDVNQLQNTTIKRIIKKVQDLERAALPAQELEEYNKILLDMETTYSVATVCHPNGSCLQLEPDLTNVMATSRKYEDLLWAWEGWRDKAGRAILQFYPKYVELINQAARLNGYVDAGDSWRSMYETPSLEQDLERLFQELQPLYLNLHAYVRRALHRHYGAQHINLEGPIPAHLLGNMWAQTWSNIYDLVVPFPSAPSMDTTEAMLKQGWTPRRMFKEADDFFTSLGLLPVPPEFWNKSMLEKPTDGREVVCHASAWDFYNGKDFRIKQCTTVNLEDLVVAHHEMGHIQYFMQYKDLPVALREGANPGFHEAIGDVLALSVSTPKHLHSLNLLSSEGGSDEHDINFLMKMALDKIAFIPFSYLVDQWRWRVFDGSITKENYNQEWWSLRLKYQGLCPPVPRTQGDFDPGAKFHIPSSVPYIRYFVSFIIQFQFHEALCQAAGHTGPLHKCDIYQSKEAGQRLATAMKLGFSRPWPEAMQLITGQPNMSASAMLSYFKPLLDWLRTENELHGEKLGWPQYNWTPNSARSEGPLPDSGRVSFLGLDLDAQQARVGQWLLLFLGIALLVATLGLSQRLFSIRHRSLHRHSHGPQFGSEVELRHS
T8 sequence (P08473 whole entry): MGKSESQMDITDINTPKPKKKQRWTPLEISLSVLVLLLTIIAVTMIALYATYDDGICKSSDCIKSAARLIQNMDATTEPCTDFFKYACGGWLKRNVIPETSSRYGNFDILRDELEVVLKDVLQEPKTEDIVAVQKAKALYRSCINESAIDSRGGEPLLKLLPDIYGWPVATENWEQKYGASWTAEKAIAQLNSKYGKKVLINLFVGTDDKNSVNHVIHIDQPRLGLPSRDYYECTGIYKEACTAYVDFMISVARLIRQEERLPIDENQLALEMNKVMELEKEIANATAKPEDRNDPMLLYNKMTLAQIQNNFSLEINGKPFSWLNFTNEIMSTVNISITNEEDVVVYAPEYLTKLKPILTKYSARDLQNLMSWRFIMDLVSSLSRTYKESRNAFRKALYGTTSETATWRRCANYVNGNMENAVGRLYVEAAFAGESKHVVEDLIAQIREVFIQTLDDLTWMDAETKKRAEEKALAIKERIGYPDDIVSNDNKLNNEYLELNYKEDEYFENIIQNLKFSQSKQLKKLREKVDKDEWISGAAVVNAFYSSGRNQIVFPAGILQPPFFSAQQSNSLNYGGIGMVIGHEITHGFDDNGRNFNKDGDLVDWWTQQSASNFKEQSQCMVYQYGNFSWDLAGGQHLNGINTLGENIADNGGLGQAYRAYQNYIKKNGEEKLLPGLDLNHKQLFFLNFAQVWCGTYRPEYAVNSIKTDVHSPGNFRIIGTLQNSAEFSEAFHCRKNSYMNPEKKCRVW
T2 sequence (P31645 whole entry): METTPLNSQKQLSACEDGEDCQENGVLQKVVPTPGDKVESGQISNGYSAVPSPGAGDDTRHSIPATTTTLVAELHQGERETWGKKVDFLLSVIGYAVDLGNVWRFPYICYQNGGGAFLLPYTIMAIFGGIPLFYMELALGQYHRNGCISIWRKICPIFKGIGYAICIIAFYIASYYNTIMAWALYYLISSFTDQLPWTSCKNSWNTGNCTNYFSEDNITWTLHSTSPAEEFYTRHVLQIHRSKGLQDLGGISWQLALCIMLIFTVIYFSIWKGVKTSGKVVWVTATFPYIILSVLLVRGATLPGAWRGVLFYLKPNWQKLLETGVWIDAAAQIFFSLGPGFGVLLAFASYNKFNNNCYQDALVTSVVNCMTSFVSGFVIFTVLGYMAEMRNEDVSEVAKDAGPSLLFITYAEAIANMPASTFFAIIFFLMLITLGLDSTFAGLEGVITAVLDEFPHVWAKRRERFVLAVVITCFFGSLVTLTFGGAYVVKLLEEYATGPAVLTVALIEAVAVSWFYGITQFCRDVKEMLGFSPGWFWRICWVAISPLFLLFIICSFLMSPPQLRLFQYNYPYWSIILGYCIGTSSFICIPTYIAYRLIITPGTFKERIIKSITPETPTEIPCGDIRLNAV
Sequence of Cysteinyl leukotriene receptor 1 (Q2NNR5 whole entry): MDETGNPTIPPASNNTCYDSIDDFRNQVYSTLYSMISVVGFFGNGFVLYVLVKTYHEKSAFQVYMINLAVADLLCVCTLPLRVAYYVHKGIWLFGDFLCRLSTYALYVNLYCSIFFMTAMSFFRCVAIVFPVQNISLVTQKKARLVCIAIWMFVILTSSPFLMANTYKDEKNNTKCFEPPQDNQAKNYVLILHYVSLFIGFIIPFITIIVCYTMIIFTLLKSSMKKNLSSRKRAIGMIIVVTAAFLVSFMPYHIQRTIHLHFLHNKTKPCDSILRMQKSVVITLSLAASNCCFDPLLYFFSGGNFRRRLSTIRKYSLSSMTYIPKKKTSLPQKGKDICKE
Sequence of Platelet-activating factor receptor (P25105 whole entry): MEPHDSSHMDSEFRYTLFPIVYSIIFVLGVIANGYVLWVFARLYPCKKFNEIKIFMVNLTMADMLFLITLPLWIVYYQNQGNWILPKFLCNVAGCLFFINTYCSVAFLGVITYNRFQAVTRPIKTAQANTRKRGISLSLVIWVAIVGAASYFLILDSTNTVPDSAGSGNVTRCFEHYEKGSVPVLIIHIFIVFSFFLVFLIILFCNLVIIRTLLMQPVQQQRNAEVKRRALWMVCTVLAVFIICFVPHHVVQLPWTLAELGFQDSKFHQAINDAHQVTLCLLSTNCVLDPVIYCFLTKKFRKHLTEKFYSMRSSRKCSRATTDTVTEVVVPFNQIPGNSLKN

Work on `c1ccc2c(N3CCNCC3)cccc2c1` yielded an IC50 [1] of over 1000 nM and an IC50 [2] of 62 nM.
Work on `CN[C@@H](CCOc1ccc([N+](=O)[O-])cc1)c1ccc(OC(=O)N(C)C)cc1` yielded an IC50 [3] of 101 nM and an IC50 [4] of 42 nM.
`C[C@@H]1CN(c2cccc3cc(F)ccc23)CCN1CCC1OCCc2c1sc(C(N)=O)c2Cl` (stereo partly drawn) gave a Ki [5] of 140 nM, a Ki [6] of over 1000 nM and a Ki [7] of 45 nM. It also gave an IC50 [4] of 2.1 nM and a Ki [8] of 291 nM.
With `CC(C)C[C@H](CC(=O)NO)C(=O)N[C@@H](Cc1ccccc1)C(=O)N[C@@H](C)C=O` the IC50 [9] was 25 nM.
For `COc1cc(C(=O)N2CC[C@](CCN3CCC(C(N)=O)(c4ccccc4)CC3)(c3ccc(Cl)c(Cl)c3)C2)cc(OC)c1OC`, the IC50 [10] was 3 nM and the IC50 [11] was over 10000 nM.
Compound `COc1cccc2c1CCC[C@H]2CN(C)CCc1ccc2ccoc2c1` has a Ki [12] of 2 nM and a Ki [13] of 144 nM.
`NC(=O)c1ccc2c(c1)CCOC2CCN1CC=C(c2c[nH]c3cc(F)ccc23)CC1` (stereo not drawn) gave a Ki [5] of 16 nM, an IC50 [4] of 0.11 nM and a Ki [8] of 4.7 nM.
In the case of `Cc1ccc2c(OCCN3CCC(Cc4ccc5c(c4)NC(=O)CO5)CC3)cccc2n1`, the “Log Ki” value [14] is reported as under -6.3 and the Ki [15] is reported as 6.31 nM.
Compound `O=C(CCc1cc(C(F)(F)F)cc(C(F)(F)F)c1)N(c1ccc(F)cc1)C1CCNCC1` has a Ki [15] of 251 nM and a Ki [16] of 200 nM.
Compound `OC(CCc1ccccc1)CN1CCC2(CC1)OCc1c2ccc2ccccc12` (stereo not drawn) has a bioavailability [17] of 65% and a Ki [18] of 10 nM.
`Cc1cncc(CN2CCC(=C3c4ccc(Cl)cc4CCc4cccnc43)CC2)c1` [RUPATADINE] gave an IC50 [19] of 3700 nM.
For `O=C1Cc2cc(CCN3CCN(c4cccc5ccccc45)CC3)ccc2N1`, the IC50 [1] was 44 nM, the IC50 [20] was 5 nM and the IC50 [21] was 45 nM. For the same compound, the IC50 [2] was 20 nM.
Compound `O=C(N[C@H](CN1CCC(OC2c3ccccc3CCc3ccccc32)CC1)C(=O)O)OCc1ccccc1` has an IC50 [22] of 1550 nM and a Kd [23] of 410 nM.
With `COc1ccc2c(c1)CC[C@H]2[C@@H](CS)C(=O)N[C@@H](Cc1c[nH]c2ccccc12)C(=O)O` the Ki [24] was 1.3 nM, the Ki [25] was 24 nM and the Ki [26] was 10 nM.
`COc1ccc(C2(CCN3CCC(C(=O)c4nc5ccccc5n4Cc4ccc(F)cc4)CC3)CCN(C(=O)c3cc(OC)c(OC)c(OC)c3)C2)cc1OC` (stereo not drawn) showed an IC50 [11] of 31 nM.
With `CN(C)C[C@@H]1C2CCC(CC2)[C@@H]1c1cccc(Cl)c1` the IC50 [27] was 28 nM and the IC50 [4] was 270 nM.
`CC(=O)N1CCC(=C2c3ccc(Cl)cc3CCc3cccnc32)CC1` [SCH-37370] showed an IC50 [10] of 100 nM and an IC50 [19] of 840 nM.
With `O=C(Nc1cccc(Nc2nccc(-c3cccnc3)n2)c1)c1ccccc1` the IC50 [28] was 400 nM.
In the case of `Fc1cc2c(c(OCCNCCCc3c[nH]c4ccc(F)cc34)c1)OCCC2`, the inhibition [29] is reported as 79% and the Ki [18] is reported as 0.5 nM.
Compound `CN(CCCCc1c[nH]cn1)CCC(c1ccc(Cl)cc1)c1ccccn1` (stereo not drawn) has a Ki [30] of 7 nM and a Ki [31] of 15 nM.
In the case of `CN1C(=O)[C@H](NC(=O)Nc2ccc(CC(=O)NCCC(=O)NCCCOc3cccc(CN4CCCCC4)c3)cc2)N=C(c2ccccc2)c2ccccc21`, the Kb [32] is reported as 251 nM, the IC50 [33] is reported as 136 nM and the IC50 [34] is reported as 290 nM.
Compound `CN(C(=O)c1cc(C(F)(F)F)cc(C(F)(F)F)c1)[C@@H](/C=C/C(=O)NCCN1CCCCC1)Cc1ccc(Cl)cc1` has an IC50 [35] of 49 nM and an IC50 [36] of 10 nM.
With `O=C(O)CCNC(=O)C(CS)Cc1ccccc1` (stereo not drawn) the IC50 [37] was 9.4 nM and the IC50 [38] was 32000 nM.
Compound `O=C(N[C@H]1Cc2ccccc2C2CCC[C@H](C(=O)O)N2C1=O)[C@H](S)Cc1ccccc1` (stereo partly drawn) has an IC50 [37] of 0.08 nM and an IC50 [38] of 0.11 nM.
In the case of `CN1CCC(=C2c3ccccc3C=Cc3ccccc32)CC1` [CYPROHEPTADINE], the IC50 [22] is reported as over 100000 nM.
